The nature of series [1]: Stabilization of Kathon 39 FG / bromo-2-nitropropane-1,3-diol basic preparation: appearance and pH on storage. The protocol: A basic preparation which contained 88.34% of purified water, 6.00% of bromo-2-nitropropane-1,3-diol and 5.66% of Kathon 39 FG was made. […] Kathon 39 FG is a mixture of CMI and MI prepared with solvent and a low salt and water content (available from Rohm & Haas Company). Thereafter, 100 g of the basic preparation were brought to a pH of 5.16 with triethanolamine (preparation A) and with imidazole to a pH of 5.32 (preparation B). Preparation C was prepared with the addition of 0.1% of pyrion disulphide to 100 g of the basic preparation. The basic preparation D (without addition) acted as reference. The appearance of a freshly made preparation and the appearance as affected by increasing storage times were examined. In addition, the pH of all preparations was tested after 35 days.

The procedure of series [2]: Moreover, it is preferred that the reaction is carried out over a period of 5 minutes to 4 hours, preferably up to 120 minutes and in particular up to 60 minutes. Suitable reaction temperatures are in the range of from 0 to 80° C., preferably 10 to 40° C. and in particular 20 to 30° C. If appropriate, the stabilizer solution obtained after the reaction can be filtered in order to remove troublesome solid components.

Like-named read-outs stand apart in the source and are kept apart here.

In the case of `c1c[nH]cn1` [imidazole], in series [1] (additive to the basic preparation, versus basic preparation D), the “stabilization of aqueous CMI/MI-based preparation containing 6.00% of bromo-2-nitropropane-1,3-diol” value is “stabilizing effect on the composition, albeit to a lesser extent”.
Turning to `[O-][n+]1ccccc1SSc1cccc[n+]1[O-]` [pyrion disulphide, 2,2′-dithiobis(pyridine N-oxide)], in series [2], the solubility in water stood at 0.9 % by weight. Besides, the “stabilization of aqueous CMI/MI-based preparation containing 6.00% of bromo-2-nitropropane-1,3-diol” value in series [1] is listed as “improved”.
